Test in all cases: Kinase selectivity, P33-radiolabeled assay
What all share (assay type): biochemical
Settings in all cases: 10 μM ATP

The target of one test is T1, DDR2 (Homo sapiens, UniProt Q16832).
T1 construct: purchased Reaction Biology Corp
T1 sequence (Q16832 22-855): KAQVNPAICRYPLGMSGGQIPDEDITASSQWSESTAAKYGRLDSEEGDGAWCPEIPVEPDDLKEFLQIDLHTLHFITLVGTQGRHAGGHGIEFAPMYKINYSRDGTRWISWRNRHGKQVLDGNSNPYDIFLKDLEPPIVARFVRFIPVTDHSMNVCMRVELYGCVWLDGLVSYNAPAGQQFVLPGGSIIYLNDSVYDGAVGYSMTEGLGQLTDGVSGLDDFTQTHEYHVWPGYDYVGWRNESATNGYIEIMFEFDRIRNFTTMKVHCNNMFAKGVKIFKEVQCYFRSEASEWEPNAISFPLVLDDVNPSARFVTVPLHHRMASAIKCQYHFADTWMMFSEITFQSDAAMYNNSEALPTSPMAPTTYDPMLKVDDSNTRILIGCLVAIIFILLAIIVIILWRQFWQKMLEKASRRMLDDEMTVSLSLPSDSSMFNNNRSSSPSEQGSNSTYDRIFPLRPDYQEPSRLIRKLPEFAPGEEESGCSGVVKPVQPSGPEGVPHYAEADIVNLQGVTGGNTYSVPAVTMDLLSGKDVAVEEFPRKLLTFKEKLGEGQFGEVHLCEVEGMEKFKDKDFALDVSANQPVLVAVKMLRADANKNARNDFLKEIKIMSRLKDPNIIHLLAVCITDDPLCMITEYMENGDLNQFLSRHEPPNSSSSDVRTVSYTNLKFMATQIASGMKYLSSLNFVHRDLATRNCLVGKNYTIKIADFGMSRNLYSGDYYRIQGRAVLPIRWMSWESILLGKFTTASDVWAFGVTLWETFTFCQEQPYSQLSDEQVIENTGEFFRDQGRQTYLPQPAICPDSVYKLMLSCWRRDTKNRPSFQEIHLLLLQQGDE
A digest of the protocol: (§1)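 Each enzyme was exposed to 10 μM compound, with duplicate measurements, in reactions containing 10 μM ATP. Numbers are remaining activity as a percent of the vehicle (DMSO) signal.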

The target of a further test is T2, MYO3b (Homo sapiens, UniProt Q8WXR4).
T2 construct: purchased Reaction Biology Corp
T2 sequence (Q8WXR4 1-1341): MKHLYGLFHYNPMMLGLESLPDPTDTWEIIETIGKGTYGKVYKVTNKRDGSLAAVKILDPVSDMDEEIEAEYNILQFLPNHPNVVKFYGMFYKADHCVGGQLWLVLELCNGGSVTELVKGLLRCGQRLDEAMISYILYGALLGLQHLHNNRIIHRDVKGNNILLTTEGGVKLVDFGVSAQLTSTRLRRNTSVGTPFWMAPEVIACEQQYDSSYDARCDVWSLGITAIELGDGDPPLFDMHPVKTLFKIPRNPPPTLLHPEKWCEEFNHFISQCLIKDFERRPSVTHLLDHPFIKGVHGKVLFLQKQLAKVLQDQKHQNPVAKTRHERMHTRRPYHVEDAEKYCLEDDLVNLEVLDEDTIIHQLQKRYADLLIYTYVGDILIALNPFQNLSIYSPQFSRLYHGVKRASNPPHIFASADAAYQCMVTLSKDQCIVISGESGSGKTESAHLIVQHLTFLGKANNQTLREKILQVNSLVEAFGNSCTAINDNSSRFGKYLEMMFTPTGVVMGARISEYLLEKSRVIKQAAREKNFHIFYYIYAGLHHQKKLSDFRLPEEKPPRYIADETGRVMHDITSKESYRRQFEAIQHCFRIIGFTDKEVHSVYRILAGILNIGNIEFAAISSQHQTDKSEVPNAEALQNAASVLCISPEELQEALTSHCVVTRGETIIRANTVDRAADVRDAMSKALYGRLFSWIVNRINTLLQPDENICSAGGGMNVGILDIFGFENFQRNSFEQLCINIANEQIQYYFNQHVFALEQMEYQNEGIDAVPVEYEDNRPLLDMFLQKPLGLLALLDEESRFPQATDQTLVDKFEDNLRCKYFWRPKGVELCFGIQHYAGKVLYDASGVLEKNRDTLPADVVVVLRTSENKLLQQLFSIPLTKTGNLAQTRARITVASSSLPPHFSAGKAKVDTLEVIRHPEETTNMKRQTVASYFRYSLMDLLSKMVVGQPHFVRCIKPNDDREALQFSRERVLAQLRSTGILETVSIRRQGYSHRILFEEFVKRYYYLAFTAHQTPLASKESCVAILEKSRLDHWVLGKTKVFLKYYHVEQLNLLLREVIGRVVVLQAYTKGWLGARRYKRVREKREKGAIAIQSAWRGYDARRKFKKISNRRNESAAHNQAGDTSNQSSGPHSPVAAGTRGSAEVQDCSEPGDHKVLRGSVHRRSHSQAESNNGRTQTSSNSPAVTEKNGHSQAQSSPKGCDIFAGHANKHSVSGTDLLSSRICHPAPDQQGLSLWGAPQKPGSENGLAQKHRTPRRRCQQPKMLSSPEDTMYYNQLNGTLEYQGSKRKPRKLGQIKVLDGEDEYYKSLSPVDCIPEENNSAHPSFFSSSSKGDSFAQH
In outline: as §1

The next test deals with T3, CDK2/Cyclin A1 (Homo sapiens, UniProt P24941).
T3 construct: purchased Reaction Biology Corp
In outline:
as §1

The mark [1] stands for this setting: read-out: % Enzyme Activity (relative to DMSO controls) AVG.
[2] abbreviates: read-out: % Enzyme Activity (relative to DMSO controls) Data 1.
[3] abbreviates: read-out: % Enzyme Activity (relative to DMSO controls) Data 2.

Like-named read-outs stand apart in the source and are kept apart here.

Consider `CC(C)(C)C(=O)N1N=CC[C@H]1c1ccccc1` [GSK′963], for which the remaining activity at 10 µM amounted to 93.2% at DDR2 (setting [1]); 94% at DDR2 (setting [2]); 92.4% at DDR2 (setting [3]); 111% on MYO3b (setting [1]); 111% on MYO3b (setting [2]); 111% at MYO3b (setting [3]). For the same molecule, the remaining activity at 10 µM on CDK2/Cyclin A1 (setting [1]), on CDK2/Cyclin A1 (setting [2]) and on CDK2/Cyclin A1 (setting [3]) was 107% each time.

Values taken from publication PMC4979471 (Cell Death Discovery, 2015).
